Values quoted from earlier work as cited in US7102020B2, “Total synthesis of daurichromenic acid” (priority 2002, dated 2006).

Tested on: HIV
Settings: acutely infected H9 cells

Compound: CC(C)=CCC/C(C)=C/CC[C@@]1(C)C=Cc2c(cc(C)c(C(=O)O)c2O)O1 [Daurichromenic acid]
- anti-HIV activity EC50: 5.67 ng/mL
